This note sets out measurements from patent US20230242513A1, “NOVEL HETEROARYL-SUBSTITUTED PYRAZINE DERIVATIVES AS PESTICIDES” (Bayer Animal Health GmbH, priority 2020, published 2023).

Type in all cases: in vivo
In experiment [1] the test system is Diabrotica balteata (banded cucumber beetle larvae). Nature of the experiment: Diabrotica balteata spray test. The conditions noted are these: 168 h, wheat seeds, after 7 days, read-out: efficacy (seedlings grown up like untreated, uninfected control). As to the method:
Diabrotica balteata—Spray Test
(§1) Solvent: 78.0 parts by weight of acetone • • 1.5 parts by weight of dimethylformamide
(§2) Emulsifier: alkylarylpolyglycol ether
(§3) To produce a suitable preparation of active compound, 1 part by weight of active compound is mixed with the stated amount of solvent, and the concentrate is diluted with water, containing an emulsifier concentration of 1000 ppm, to the desired concentration. Further test concentrations are prepared by dilution with emulsifier containing water.
Soaked wheat seeds (Triticum aestivum) are placed in a multiple well plate filled with agar and some water and are incubated for 1 day to germinate (5 seeds per well). The germinated wheat seeds are sprayed with a test solution containing the desired concentration of the active ingredient. Afterwards each unit is infected with 10-20 larvae of the banded cucumber beetle (Diabrotica balteata).
After 7 days efficacy in % is determined. 100% means all the seedlings have grown up like in the untreated, uninfected control; 0% means none of the seedlings have grown.

Experiment [2] relates to Myzus persicae (green peach aphid). Nature of the experiment: Myzus persicae oral test. The following applies: 120 h, application rate 20 ppm, after 5 days. As for the experimental part: Solvent: 100 parts by weight acetone
To produce a suitable preparation of active compound, 1 part by weight of active compound is mixed with the stated amount of solvent, and the concentrate is diluted with water to the desired concentration.
50 μL compound solution is filled in microtiter plates and 150 μL IPL41 insect medium (33%+15% sugar) is added to obtain a total volume of 200 μL per well. Afterwards the plates are sealed with parafilm through which a mixed population of the green peach aphid (Myzus persicae) can suck on the compound preparation.
After 5 days mortality in % is determined. 100% means all aphids have been killed and 0% means none of the aphids have been killed.

The subject of experiment [3] is Nezara viridula (southern green stink bug larvae). Nature of the experiment: Nezara viridula spray test. The following applies: 96 h, application rate 500 g/ha, barley plants, after 4 days. As to the method:
Nezara viridula—Spray Test
as §1, §2, §3
Barley plants (Hordeum vulgare) are sprayed with a test solution containing the desired concentration of the active ingredient and are infested with larvae of the southern green stink bug (Nezara viridula).
After 4 days mortality in % is determined. 100% means all the stink bugs have been killed; 0% means none of the stink bugs have been killed.

In experiment [4] the test system is Rhipicephalus sanguineus (adult brown dog ticks). Nature of the experiment: Rhipicephalus sanguineus in-vitro contact test, adult brown dog ticks. The conditions noted are these: application rate 5 μg/cm^2 (=500 g/ha); after 48 hours. As for the experimental part: Rhipicephalus sanguineus—In-Vitro Contact Tests with Adult Brown Dog Ticks
9 mg compound is solved in 1 mL acetone and diluted with acetone to the desired concentration. 250 μL of the test solution is filled in 25 mL glass test tubes and homogeneously distributed on the inner walls by rotation and tilting on a shaking device (2 h at 30 rpm). With a compound concentration of 900 ppm, an inner surface of 44.7 cm^2 and a homogeneous distribution, a dose of 5 μg/cm^2 is achieved.
After the solvent has evaporated, each test tube is filled with 5-10 adult brown dog ticks (Rhipicephalus sanguineus), closed with a perforated lid and incubated in a lying position at room temperature and relative humidity. After 48 hours efficacy is determined. The ticks are patted on the ground of the tubes and are incubated on a heating plate at 45-50° C. for at most 5 minutes. Immotile or uncoordinated moving ticks, which are not able to escape the heat by climbing upwards, are marked as dead or moribund.
An efficacy of 100% means all ticks are dead or moribund; 0% means no ticks are dead or moribund.

Experiment [5] relates to Rhipicephalus (Boophilus) microplus larvae (strain Parkhurst, resistant against synthetic pyrethroids). The experiment in a line: Rhipicephalus (Boophilus) microplus in-vitro contact test, larval cattle tick. The following applies: application rate 5 μg/cm^2 (=500 g/ha); after 48 hours. As to the method:
Rhipicephalus (Boophilus) microplus—In-Vitro Contact Tests Larval Cattle Tick (Strain Parkhurst, Resistant Against Synthetic Pyrethroids)
9 mg compound is solved in 1 mL acetone and diluted with acetone to the desired concentration. 250 μL of the test solution is filled in 25 mL glass test tubes and homogeneously distributed on the inner walls by rotation and tilting on a shaking device (2 h at 30 rpm). With a compound concentration of 900 ppm, an inner surface of 44.7 cm^2 and a homogeneous distribution, a dose of […] is achieved.
After the solvent has evaporated, each test tube is filled with 20-50 cattle tick larvae (Rhipicephalus microplus), closed with a perforated lid and incubated in a horizontal position at 85% relative humidity and 27° C. in an incubator. After 48 hours efficacy is determined. The larvae are patted on the ground of the tubes and negative geotactic behavior is recorded.
An efficacy of 100% means all larvae are dead or moribund; 0% means no larvae are dead or moribund.

Regarding `CC(NC(=O)c1cc(Cl)cc(S(C)(=O)=O)c1)c1nccnc1-n1nccn1` (racemic) [Example I-1, (rac)-3-Chloro-5-(methylsulfonyl)-N-{1-[3-(2H-1,2,3-triazol-2-yl)pyrazin-2-yl]ethyl}benzamide], the pest or weed control at 32 µg/disc, 100 g/ha in experiment [1] (application rate 100 g/ha (=32 μg/well)) came out at 100%. Also, the pest or weed control at 160 µg/disc, 500 g/ha in experiment [1] (application rate 500 g/ha (=160 μg/well)) was 100%. In addition, the mortality at 20 ppm in experiment [2] turned out to be 100%. The compound further displayed a mortality at 500 g/ha in experiment [3] of 100%. Moreover, the “efficacy (ticks dead or moribund)” value in experiment [4] amounted to 100%. Also, in experiment [5], the “efficacy (larvae dead or moribund)” value turned out to be 90%.
